Patent publication US12577234B2, “Antagonists of the muscarinic acetylcholine receptor M4” (Vanderbilt University, priority 2017, dated 2026)

Target: T1, human mAChR M4 (Homo sapiens, UniProt P08173)
T1 construct: expressed in transfected cells; host or cells: CHO-K1 (ATCC), stably co-expressing chimeric G protein Gqi5
T1 sequence (P08173 1-479): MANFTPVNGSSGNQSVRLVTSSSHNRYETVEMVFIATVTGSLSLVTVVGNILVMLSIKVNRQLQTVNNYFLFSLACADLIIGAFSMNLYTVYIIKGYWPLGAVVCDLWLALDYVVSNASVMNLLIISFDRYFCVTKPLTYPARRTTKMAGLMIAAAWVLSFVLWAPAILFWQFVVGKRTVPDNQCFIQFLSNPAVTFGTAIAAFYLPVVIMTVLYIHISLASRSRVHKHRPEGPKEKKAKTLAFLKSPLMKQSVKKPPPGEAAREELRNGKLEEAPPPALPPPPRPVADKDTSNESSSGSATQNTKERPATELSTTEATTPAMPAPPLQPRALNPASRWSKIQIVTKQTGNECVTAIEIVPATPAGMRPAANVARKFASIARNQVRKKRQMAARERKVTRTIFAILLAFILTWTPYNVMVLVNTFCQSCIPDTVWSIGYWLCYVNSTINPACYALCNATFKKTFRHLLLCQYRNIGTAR
Assay: mAChR M4 cell-based functional assay (calcium mobilization, EC80 acetylcholine), human M4
Conditions: for Emin: human M4, % ACh maximum at 30 μM
Procedure, shortened: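 CHO-K1 cells stably expressing human M4 with chimeric Gqi5; intracellular calcium rise read on FDSS as fluorescence static ratio at 1 Hz. Compounds in 10-point 1:3 dilution series; IC50 taken as concentration-dependent decrease of the EC80 acetylcholine response, four-parameter logistic fit.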

[1] = Table 9, M4/Gqi5/CHO-K1 cells, decrease of EC80 acetylcholine response
[2] = Table 10, M4/Gqi5/CHO-K1 cells, decrease of EC80 acetylcholine response

Row | Compound | IC50 [1] [µM] | Emin (Table 9) [%] | Human M4 Emin (Table 10) [%] | IC50 [2] [µM] | also measured
1 | Cc1nn(C)cc1-c1ccc(N[C@H]2C[C@@H]3CN(CC4CCCCC4)C[C@@H]3C2)nn1 [Compound 7, (3aR,5s,6aS)-2-(cyclohexylmethyl)-N-[6-(1,3-dimethylpyrazol-4-yl)pyridazin-3-yl]-3,3a,4,5,6,6a-hexahydro-1H-cyclopenta[c]pyrrol-5-amine] | 0.01 | 2.72 |  |  | 
2 | CCC(C)CN1C[C@H]2C[C@H](Nc3ccc(-c4cc(F)ccc4Cl)nn3)C[C@H]2C1 (stereo partly drawn) [Compound 29, (3aR,5s,6aS)-N-[6-(2-chloro-5-fluoro-phenyl)pyridazin-3-yl]-2-(2-methylbutyl)-3,3a,4,5,6,6a-hexahydro-1H-cyclopenta[c]pyrrol-5-amine] | 0.0026 | 7.8 |  |  | 
3 | Cc1cnn(C)c1-c1ccc(OCC2C[C@@H]3CN(Cc4ccccn4)C[C@@H]3C2)nn1 (stereo partly drawn) [Compound 89, (3aR,6aS)-5-[[6-(2,4-dimethylpyrazol-3-yl)pyridazin-3-yl]oxymethyl]-2-(2-pyridylmethyl)-3,3a,4,5,6,6a-hexahydro-1H-cyclopenta[c]pyrrole] | 8.08 | 18.1 |  |  | 
4 | Fc1ccc(Cl)c(-c2ccc(OCC3C[C@@H]4CN(Cc5ccccc5)C[C@@H]4C3)nn2)c1 (stereo partly drawn) [Compound 114, (3aR,6aS)-2-benzyl-5-[[6-(2-chloro-5-fluoro-phenyl)pyridazin-3-yl]oxymethyl]-3,3a,4,5,6,6a-hexahydro-1H-cyclopenta[c]pyrrole] | 2.5 | 6.02 |  |  | 
5 | [(3aR,5r,6aS)-5-[6-(1,3-dimethylpyrazol-4-yl)pyridazin-3-yl]oxy-3,3a,4,5,6,6a-hexahydro-1H-cyclopenta[c]pyrrol-2-yl]-(1-adamantyl)methanone [Compound 60] |  | 58.2 |  |  | IC50 (Table 9, μM): > 10 µM
6 | Cc1cnn(C)c1-c1ccc(OC[C@@H]2C[C@@H]3CN(CCC(C)(C)C)C[C@@H]3C2)nn1 [Compound 147, (3aR,5r,6aS)-2-(3,3-dimethylbutyl)-5-[[6-(2,4-dimethylpyrazol-3-yl)pyridazin-3-yl]oxymethyl]-3,3a,4,5,6,6a-hexahydro-1H-cyclopenta[c]pyrrole] |  |  | 4 | 0.0424 | 
7 | Cc1nn(C)cc1-c1ccc(N[C@@H]2C[C@@H]3CN(CCC(C)(C)C)C[C@@H]3C2)c(F)c1F [Compound 41, (3aR,5r,6aS)-2-(3,3-Dimethylbutyl)-N-[4-(1,3-dimethylpyrazol-4-yl)-2,3-difluoro-phenyl]-3,3a,4,5,6,6a-hexahydro-1H-cyclopenta[c]pyrrol-5-amine] | 0.433 | 4.62 |  |  | 
8 | CC(=O)Nc1ccc(-c2ccc(O[C@H]3C[C@@H]4CN(Cc5ncccc5C)C[C@@H]4C3)nn2)cc1 [Compound 133, N-[4-[6-[[(3aR,5s,6aS)-2-[(3-methyl-2-pyridyl)methyl]-3,3a,4,5,6,6a-hexahydro-1H-cyclopenta[c]pyrrol-5-yl]oxy]pyridazin-3-yl]phenyl]acetamide] |  |  | 5 | 1.07 | 
9 | Fc1cccc(Cl)c1-c1ccc(N[C@H]2C[C@@H]3CN(CC4CCOCC4)C[C@@H]3C2)nn1 [Compound 204, (3aR,5s,6aS)-N-[6-(2-chloro-6-fluoro-phenyl)pyridazin-3-yl]-2-(tetrahydropyran-4-ylmethyl)-3,3a,4,5,6,6a-hexahydro-1H-cyclopenta[c]pyrrol-5-amine] |  |  | 4 | 0.000432 | 
10 | Fc1ccc(Cl)c(-c2ccc(N[C@H]3C[C@@H]4CN(CC5CCOCC5)C[C@@H]4C3)nn2)c1 [Compound 32, (3aR,5s,6aS)-N-[6-(2-chloro-5-fluoro-phenyl)pyridazin-3-yl]-2-(tetrahydropyran-4-ylmethyl)-3,3a,4,5,6,6a-hexahydro-1H-cyclopenta[c]pyrrol-5-amine] | 0.0007 | 4.92 |  |  | 
11 | Cc1ccc(F)cc1-c1ccc(N[C@H]2C[C@@H]3CN(CC4CCOCC4)C[C@@H]3C2)nn1 [Compound 214, (3aR,5s,6aS)-N-[6-(5-fluoro-2-methyl-phenyl)pyridazin-3-yl]-2-(tetrahydropyran-4-ylmethyl)-3,3a,4,5,6,6a-hexahydro-1H-cyclopenta[c]pyrrol-5-amine] |  |  | 4 | 0.000293 | 
12 | Cc1nn(C)cc1-c1ccc(NCC2C[C@@H]3CN(CC(C)C(C)(C)C)C[C@@H]3C2)nn1 (stereo partly drawn) [Compound 63, N-[[(3aR,6aS)-2-(2,3,3-trimethylbutyl)-3,3a,4,5,6,6a-hexahydro-1H-cyclopenta[c]pyrrol-5-yl]methyl]-6-(1,3-dimethylpyrazol-4-yl)pyridazin-3-amine] | 0.108 | 3.46 |  |  | 
13 | Cc1nn(C)cc1-c1ccc(N[C@H]2C[C@@H]3CN(CCC(C)(C)C)C[C@@H]3C2)nc1 [Compound 149, (3aR,5s,6aS)-2-(3,3-dimethylbutyl)-N-[5-(1,3-dimethylpyrazol-4-yl)-2-pyridyl]-3,3a,4,5,6,6a-hexahydro-1H-cyclopenta[c]pyrrol-5-amine] |  |  | 4 | 0.127 | 
14 | c1coc(-c2ccc(N[C@H]3C[C@@H]4CN(CC5CCOCC5)C[C@@H]4C3)nn2)c1 [Compound 188, (3aR,5s,6aS)-N-[6-(2-furyl)pyridazin-3-yl]-2-(tetrahydropyran-4-ylmethyl)-3,3a,4,5,6,6a-hexahydro-1H-cyclopenta[c]pyrrol-5-amine] |  |  | 14 | 0.00794 | 
15 | CC(C)(C)CCN1C[C@H]2C[C@H](Nc3ccc(-c4cc(F)ccc4Cl)nn3)C[C@H]2C1 [Compound 28, (3aR,5s,6aS)-N-[6-(2-chloro-5-fluoro-phenyl)pyridazin-3-yl]-2-(3,3-dimethylbutyl)-3,3a,4,5,6,6a-hexahydro-1H-cyclopenta[c]pyrrol-5-amine] | 0.01 | 3.53 |  |  | 
16 | Cc1cccnc1CN1C[C@H]2C[C@@H](Oc3ccc(-c4cn(C)nc4C)nn3)C[C@H]2C1 [Compound 52, (3aR,5r,6aS)-5-[6-(1,3-dimethylpyrazol-4-yl)pyridazin-3-yl]oxy-2-[(3-methyl-2-pyridyl)methyl]-3,3a,4,5,6,6a-hexahydro-1H-cyclopenta[c]pyrrole] |  | 26.4 |  |  | IC50 (Table 9, μM): > 10 µM
17 | CCCC(C)CN1C[C@H]2CC(COc3ccc(-c4cc(F)ccc4Cl)nn3)C[C@H]2C1 (stereo partly drawn) [Compound 110, (3aR,6aS)-5-[[6-(2-chloro-5-fluoro-phenyl)pyridazin-3-yl]oxymethyl]-2-(2-methylpentyl)-3,3a,4,5,6,6a-hexahydro-1H-cyclopenta[c]pyrrole] | 0.773 | 4.60 |  |  | 
18 | CS(=O)(=O)Nc1ccc(CN2C[C@H]3C[C@H](Nc4ccc(-c5cc(F)ccc5Cl)nn4)C[C@H]3C2)cc1 [Compound 172, N-[4-[[(3aR,5s,6aS)-5-[[6-(2-chloro-5-fluoro-phenyl)pyridazin-3-yl]amino]-3,3a,4,5,6,6a-hexahydro-1H-cyclopenta[c]pyrrol-2-yl]methyl]phenyl]methanesulfonamide] |  |  | 3 | 0.0427 | 
19 | FC(F)(F)Oc1ccc(-c2ccc(N[C@H]3C[C@@H]4CN(CC5CCOCC5)C[C@@H]4C3)nn2)cc1 [Compound 184, (3aR,5s,6aS)-2-(tetrahydropyran-4-ylmethyl)-N-[6-[4-(trifluoromethoxy)phenyl]pyridazin-3-yl]-3,3a,4,5,6,6a-hexahydro-1H-cyclopenta[c]pyrrol-5-amine] |  |  | 5 | 0.0567 | 
20 | Cc1cnn(C)c1-c1ccc(N[C@H]2C[C@@H]3CN(Cc4ccccc4)C[C@@H]3C2)nn1 [Compound 23, (3aR,5s,6aS)-2-benzyl-N-[6-(2,4-dimethylpyrazol-3-yl)pyridazin-3-yl]-3,3a,4,5,6,6a-hexahydro-1H-cyclopenta[c]pyrrol-5-amine] | 0.118 | 3.85 |  |  | 
21 | Clc1ccc(N[C@H]2C[C@@H]3CN(CC4CCOCC4)C[C@@H]3C2)nn1 [Compound 179, (3aR,5s,6aS)-N-(6-chloropyridazin-3-yl)-2-(tetrahydropyran-4-ylmethyl)-3,3a,4,5,6,6a-hexahydro-1H-cyclopenta[c]pyrrol-5-amine] |  |  | 29 |  | IC50 (Table 10, μM): > 10 µM
22 | Cc1nn(C)cc1-c1ccc(O[C@@H]2C[C@@H]3CN(CC(C)C(C)(C)C)C[C@@H]3C2)nn1 (stereo partly drawn) [Compound 46, (3aR,5r,6aS)-5-[6-(1,3-Dimethylpyrazol-4-yl)pyridazin-3-yl]oxy-2-(2,3,3-trimethylbutyl)-3,3a,4,5,6,6a-hexahydro-1H-cyclopenta[c]pyrrole] | 1.13 | 4.08 |  |  | 
23 | Cc1ccc(-c2ccc(N[C@H]3C[C@@H]4CN(CC5CCOCC5)C[C@@H]4C3)nn2)cc1 [Compound 198, (3aR,5s,6aS)-N-[6-(p-tolyl)pyridazin-3-yl]-2-(tetrahydropyran-4-ylmethyl)-3,3a,4,5,6,6a-hexahydro-1H-cyclopenta[c]pyrrol-5-amine] |  |  | 6 | 0.00399 | 
